# “Also recorded” adds a separate entry of the source. Counter-ions that a name gives are not always drawn.
# Experiments:
# SARS-CoV-2 = conditions: read-out: EC50 (antiviral activity); previously reported; cited from earlier work
# SARS-CoV-2 Omicron BA.5 = assay: Viral load reduction assay; format: cell-based; conditions: Fig. S7
# VeroE6 cells = assay: Cellular bismuth uptake; format: cell-based, African green monkey; conditions: 24 hours, ICP-MS
structure (smiles),measurement,setting,value
"CNC(=C[N+](=O)[O-])NCCSCc1ccc(CN(C)C)o1 [RBC, ranitidine bismuth citrate]",EC50,SARS-CoV-2,2300 nM
"Nc1ccc([O-])c(=O)cc1.Nc1ccc([O-])c(=O)cc1.Nc1ccc([O-])c(=O)cc1.[Bi+3] [Bi(Tro-NH2)3, Bi(5-aminotropolonate)3]",antiviral activity in virus-infected cells,SARS-CoV-2 Omicron BA.5,did not show antiviral activity as good as that at the enzyme level; also recorded: did not show potent antiviral activity in virus-infected cells
same,cellular uptake of Bi(III),VeroE6 cells,poor cellular uptake of Bi(III)

# From PMC11220592 (Chemical Science, 2024)
